Data on ten molecules can be found in paper PMC545074, “The two neutrophil members of the formylpeptide receptor family activate the NADPH-oxidase through signals that differ in sensitivity to a gelsolin derived phosphoinositide-binding peptide” (BMC Cell Biology, 2004).

pIC50: −log10 of the molar value. Read-outs that look alike come from different tables or passages of the source. Where a SMILES comes first, the peptide text is derived from it. Where no end group is shown, it is not given here. The star is where a group is joined. RhodamineB = CCN(CC)c1ccc2c(-c3ccccc3C(=O)*)c3ccc(=[N+](CC)CC)cc-3oc2c1

Series [1] deals with FPR. Put plainly: Cytosolic calcium mobilization in neutrophils (Fura-2 fluorescence), FPR agonist fMLF. Type of series: cell-based, human. The protocol:
(§1) Neutrophil granulocytes were isolated from buffy coats obtained from healthy adults. After dextran sedimentation at 1 × g, hypotonic lysis of the remaining erythrocytes, and centrifugation in a Ficoll-Paque gradient, the neutrophils were washed twice and resuspended (1 × 10^7 /ml) in Krebs-Ringer phosphate buffer containing glucose (10 mM), Ca^2+ (1 mM), and Mg^2+ (1.5 mM) (KRG; pH 7.3). The cells were stored on melting ice and used within 120 min of preparation.
(§2) Neutrophils at a density of 2 × 10^7/ml in Ca^2+-free KRG supplemented with bovine serum albumin (BSA, 0.1%) were incubated with the acetoxymethylated derivative fura-2/AM (2 μM) at room temperature for 30 minutes. The cells were washed twice and resuspended in KRG, adjusted to 2 × 10^7/ml and kept protected from light on ice until use. Cells with or without PBP10 were equilibrated for 5 minutes at 37°C, after which the peptide agonist was added. The fura-2 fluorescence was followed with a luminescence spectrometer (LS50B; Perkin Elmer Corp.) using excitation wavelengths of 340 nm and 380 nm, and an emission wavelength of 510 nm and the [Ca^2+]i was calculated as described earlier.

Series [2] addresses T1, FPRL1 (Homo sapiens, UniProt P25090).
T1 construct: Neutrophil granulocytes were isolated from buffy coats obtained from healthy adults; endogenous in cells; host or cells: human neutrophil granulocytes from buffy coats of healthy adults
T1 sequence (P25090 1-351): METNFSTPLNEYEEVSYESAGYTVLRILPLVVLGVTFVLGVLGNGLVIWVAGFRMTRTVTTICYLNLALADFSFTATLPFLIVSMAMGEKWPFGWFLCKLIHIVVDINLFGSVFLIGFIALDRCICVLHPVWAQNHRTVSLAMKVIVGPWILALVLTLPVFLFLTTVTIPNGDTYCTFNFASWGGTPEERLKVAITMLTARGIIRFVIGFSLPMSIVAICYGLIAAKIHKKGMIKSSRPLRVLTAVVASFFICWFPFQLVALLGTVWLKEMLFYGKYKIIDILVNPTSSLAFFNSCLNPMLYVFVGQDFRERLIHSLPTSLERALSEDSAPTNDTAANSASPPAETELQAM
Put plainly: Cytosolic calcium mobilization in neutrophils (Fura-2 fluorescence), FPRL1 agonist WKYMVM. The class given is cell-based. As to the method: as §1, §2
(In general: Calcium assays in cells follow changes in intracellular calcium, usually with a dye or a luminescent sensor.)

Series [3] has as its target T1, FPRL1. Kind of series: Neutrophil NADPH-oxidase activity (superoxide anion release, isoluminol-enhanced chemiluminescence) induced through FPRL1. Type of series: cell-based. The conditions noted are these: for Effect on WKYMVM induced NADPH-oxidase activity (superoxide production): FPRL1 stimulated by WKYMVM, concentration of test substance not given, antagonists and rhodamine: data not shown. The protocol:
as §1
(§3) Neutrophil production and release of superoxide anions was measured by means of an isoluminol-enhanced chemiluminescence (CL) assay. The CL activity was measured in a six-channel Biolumat LB 9505 apparatus (Berthold Co., Wildbad, Germany), using disposable 4-ml polypropylene tubes with a 900-μl reaction mixture containing 10^5–10^6 neutrophils, horseradish peroxidase (4 U) and isoluminol (20 μM) with and without cytochalasin B or PBP10. The measuring tubes were equilibrated for 5 to 10 minutes at 37°C and the cells were activated by addition of a receptor specific peptide agonist, fMLF for FPR and WKYMVM for FPRL1. The light emission was recorded continuously. Details about the CL technique are given in [45].

Series [4] addresses T1, FPRL1. Put plainly: Mobilization of CR3 to the neutrophil cell surface (FACS), WKYMVM induced. The conditions noted are these: PBP10 1 μM at 37°C for 5 minutes, then WKYMVM 100 nM for 10 minutes, four independent experiments. Type of series: cell-based. The protocol:
as §1
(§4) The exposure of CR3 (CD11b/CD18) on the neutrophil cell surface was assessed by immunostaining and FACS-analysis. Cells challenged with peptide agonists with or without PBP10 were fixed with ice-cold paraformaldehyde and washed with FACSwash (PBS, 0.02% NaN3), after which the cells were incubated at 4°C with phycoerythrin-conjugated anti-CR3 antibodies (CD11b; Becton Dickinson 10 μl/10^6 cells) before analysis using a FACScan (Becton Dickinson, Mountain View, CA).

Series [5] has as its system plasma membrane of neutrophils and other cells. Particulars: cited from earlier work.
Series [6] relates to FPR. Kind of series: Neutrophil NADPH-oxidase activity (superoxide anion release, isoluminol-enhanced chemiluminescence) induced through FPR. The class given is cell-based, human. Particulars: for Effect on fMLF induced NADPH-oxidase activity (superoxide production): FPR stimulated by fMLF, concentration of test substance not given, data not shown. As to the method:
as §1, §3

For series [7], the system named is FPR. Put plainly: Mobilization of CR3 to the neutrophil cell surface (FACS), fMLF induced. Type of series: cell-based, human. Particulars: PBP10 1 μM at 37°C for 5 minutes, then fMLF 100 nM for 10 minutes, four independent experiments. The protocol: as §1, §4
On the set-up of series [8]: method as in earlier work. Particulars: cited from earlier work.
Series [9] has as its system FPR. On the set-up: method as in PMID 15147563. The conditions noted are these: cited from earlier work.
Series [10] addresses T1, FPRL1. On the set-up: method as in PMID 15147563. The conditions noted are these: cited from earlier work.
For the next series, the system named is PKC. Kind of series: Neutrophil NADPH-oxidase activity induced by the receptor independent PKC activator PMA. The conditions noted are these: neutrophils incubated 120 minutes with PTX 500 ng/ml, then PMA 100 nM. The class given is cell-based, human.
Where [11] appears, read: human neutrophils, 100 nM, Fura-2.

In general, pIC50 refers to −log10 of the IC50, conventionally taken in molar units. With `CCN(CC)c1ccc2c(-c3ccccc3C(=O)N[C@@H](CCC(N)=O)C(=O)N[C@@H](CCCNC(=N)N)C(=O)N[C@@H](CC(C)C)C(=O)N[C@@H](Cc3ccccc3)C(=O)N[C@@H](CCC(N)=O)C(=O)N[C@H](C(=O)N[C@@H](CCCCN)C(=O)NCC(=O)N[C@@H](CCCNC(=N)N)C(=O)N[C@@H](CCCNC(=N)N)C(=O)O)C(C)C)c3ccc(=[N+](CC)CC)cc-3oc2c1` [PBP10, rhodamine-B-QRLFQVKGRR] (RhodamineB-QRLFQVKGRR-OH; C-terminus assumed), the “Effect on the calcium response induced by fMLF” value in the series on FPR [1] (PBP10 1 μM, 5 minutes at 37°C prior to fMLF 100 nM, Fura-2, representative experiment) is “did not alter”. Besides, the “Effect on the calcium response induced by WKYMVM” value at FPRL1 [2] (PBP10 1 μM, 5 minutes at 37°C prior to WKYMVM 100 nM, Fura-2, representative experiment) is recorded as “did not alter”. For the same molecule, the negative-log IC50 (pIC50) on FPRL1 [3] is 7.30. In addition, the “Effect on NADPH-oxidase activity induced by WKYMVM in the presence of cytochalasin B” value at FPRL1 [3] (cytochalasin B 2.5 μg/ml, WKYMVM 100 nM) is given as “largely inhibited”. In addition, at FPRL1 [3] (human neutrophils), the “Effect on WKYMVM induced NADPH-oxidase activity (superoxide production)” value is reported as “totally inhibited”. Besides, the “Effect on WKYMVM induced secretory response (mobilization of CR3 to the cell surface)” value at FPRL1 [4] is given as “blocked”. Further, the “Membrane permeability (ability to cross the plasma membrane)” value in series [5] (neutrophils and other cells) was “membrane permeable”. In addition, the “Effect on the FPR-mediated NADPH-oxidase response in the presence of cytochalasin B” value in the series with FPR [6] (cytochalasin B 2.5 μg/ml, fMLF 100 nM, PBP10 5 μM (higher concentrations required)) is on record as “only partly inhibited”. Also, in the series with FPR [6] (human neutrophils, PBP10 at concentrations up to 10 μM prior to activation with fMLF, isoluminol chemiluminescence), the “Effect on the fMLF induced NADPH-oxidase activity” value is “no effect”. The “Effect on FPR induced granule mobilization (CR3 exposure)” value with FPR [7] is “without effect”. Moreover, the PIP2 binding result in series [8] is reported as “PIP2 binding capacity”.

For `COC[C@H]1OC(=O)c2coc3c2[C@@]1(C)C1=C(C3=O)[C@@H]2CCC(=O)[C@@]2(C)C[C@H]1OC(C)=O` [Wortmannin], the “Effect of the PI3K inhibitor on oxidase activity induced by WKYMVM” value at FPRL1 [3] (neutrophils incubated with different concentrations at 37°C for 30 minutes, then WKYMVM 100 nM, representative experiment) was “largely inhibited”. Further, the “Effect of the PI3K inhibitor on oxidase activity induced by fMLF” value in the series on FPR [6] (neutrophils incubated with different concentrations at 37°C for 30 minutes, then fMLF 100 nM, representative experiment) is “largely inhibited”.

Regarding `C=C1[C@@H](C)[C@H]2[C@H](Cc3ccccc3)NC(=O)[C@]23OC(=O)/C=C/[C@H](O)CCC[C@@H](C)C/C=C/[C@H]3[C@@H]1O` [cytochalasin B], the “Effect of cytochalasin B on the transient rise in intracellular calcium induced by active FPR” value in the series on FPR [1] (data not shown) is on record as “not affected”. In the series with FPR [9], the “Effect of cytochalasin B on the neutrophil response to FPR agonists” value is “augmented and prolonged”. In addition, at FPRL1 [2] (data not shown), the “Effect of cytochalasin B on the transient rise in intracellular calcium induced by active FPRL1” value is on record as “not affected”. Moreover, the “Effect of cytochalasin B on the neutrophil response to FPRL1 agonists” value on FPRL1 [10] was “augmented and prolonged”.

With “N-formyl-Met-Leu-Phe [fMLF, prototype FPR agonist]”, in the series with FPR [1] (setting [11]), the “Agonist-induced change in cytosolic calcium through FPR” value was “rapid and transient increase”. Besides, in the series with FPR [6], the “Agonist-induced oxidative burst (release of superoxide anions) through FPR” value is on record as “robust oxidative burst”.

Turning to QRLFQVKGRR, at FPRL1 [3] (1 μM final concentration, 37°C for 5 minutes, then WKYMVM 100 nM), the “Effect of the unconjugated peptide on the WKYMVM induced neutrophil oxidase activity” value is given as “no effect”. Besides, the “Membrane permeability (ability to cross the plasma membrane)” value in series [5] was “lacks the ability to cross the plasma membrane”. Also, the PIP2 binding result in series [8] is reported as “same PIP2-binding characteristics as PBP10”.

On to “Rh-VKGRRG (RhodamineB-VKGRRG) [truncated rhodamine labeled peptide]”, for which the pIC50 with FPRL1 [3] (human neutrophils treated with the peptide prior to activation with WKYMVM, superoxide release by isoluminol chemiluminescence, 37°C, Fig 1D three independent experiments, read-out: IC50 value for the WKYMVM induced NADPH-oxidase response) was 6.00.

With “Trp-Lys-Tyr-Met-Val-Met-NH2 [WKYMVM, FPRL1 specific hexapeptide agonist]”, the “Agonist-induced change in cytosolic calcium through FPRL1” value with FPRL1 [2] (setting [11]) was “rapid and transient increase”. Besides, in the series with FPRL1 [3] (human neutrophils, 100 nM and 20 nM shown in Fig 1A), the “Agonist-induced oxidative burst (release of superoxide anions) through FPRL1” value was “robust oxidative burst”.

With WRWWWW [FPRL1 specific antagonist], the “Effect on WKYMVM induced NADPH-oxidase activity (superoxide production)” value at FPRL1 [3] (human neutrophils) is recorded as “totally inhibited”. In the series with FPR [6] (human neutrophils), the “Effect on fMLF induced NADPH-oxidase activity (superoxide production)” value is “not affected”.

As to cyclosporine H, the “Effect on WKYMVM induced NADPH-oxidase activity (superoxide production)” value on FPRL1 [3] (human neutrophils) is given as “without effect”. Moreover, the “Effect on fMLF induced NADPH-oxidase activity (superoxide production)” value in the series with FPR [6] (human neutrophils) was “totally inhibited”.

For the molecule pertussis toxin, the “Effect of pertussis toxin on oxidase activity induced by PMA” value with PKC is listed as “no reduction”. Further, the “Effect of pertussis toxin on the FPRL1 mediated oxidase response” value with FPRL1 [3] (neutrophils incubated 120 minutes with PTX 500 ng/ml, then WKYMVM 100 nM) is “inhibited”. For the same molecule, in the series on FPR [6] (neutrophils incubated 120 minutes with PTX 500 ng/ml, then fMLF 100 nM), the “Effect of pertussis toxin on the FPR mediated oxidase response” value is recorded as “inhibited”.
